Here are results for 2 compounds from patent publication US20180318275A1, “COMBINATION THERAPY USING PI3K INHIBITOR AND MDM2 INHIBITOR” (Novartis AG, priority 2015, published 2018).

Molecules are shown by their SMILES.

Test in all cases: Cell proliferation (cell count by microscopy), Example 3
Format in all cases: cell-based

One experiment relates to GP2d. As to conditions: single agent, 72 h, cell count relative to DMSO, unit (micromolar, top dose 10 μM). Here is the method:
(§1) COMPOUNDS A, B and C were dissolved in 100% DMSO (Sigma, Catalog number D2650) at concentrations of 20 mM and stored at −20° C. until use. Compounds were arrayed in drug master plates (Greiner, Catalog number 788876) and serially diluted 3-fold (7 steps) at 2000× concentration.
(§2) To test the effect of the combination of COMPOUND A, COMPOUND B, and COMPOUND C on cell proliferation cells were plated in black 384-well microplates with clear bottom (Matrix/Thermo Scientific, Catalog number 4332) in 50 μL media per well at cell densities between 500 and 1250 cells/well (Table 1 above) and allowed to incubate at 37 degrees, 5% CO2 for 24 h. After 24 h one 384-well plate per cell line was prepared for cell counting by microscopy (see below) without receiving treatment (=‘baseline’). The other cell plates were treated by transferring 25 nL of the 2000× compound from drug master plates using an ATS acoustic liquid dispenser (ECD Biosystems) and resulting in a final 1× concentration. COMPOUND A was used over a final concentration range of 13 nM-10 μM, COMPOUND B was used over a final concentration range of 13 nM-10 μM, and COMPOUND C was used over a final concentration range of 13 nM-10 μM (7 1:3 dilution steps). In order to assess the effect of the triple combination all individual COMPOUNDS (A, B, C), all three pair wise combinations (A+B, A+C, B+C), and the triple combination (A+B+C) were tested in the same experiment. Pair wise combinations and the triple combination were tested at a fixed ratio of 1:1 (for drug pairs) and 1:1:1 (for the drug triple) at each dilution resulting in 7 combination conditions per treatment. […] After compound addition 50 nL of 2 mM CellEvent Caspase-3/7 Green Detection Reagent (ThermoFisher, Catalog number C10423) were added to one of the three replicates using the HP D300 Digital Dispenser (Tecan). Caspase 3/7 induction was measured as a proxy for apoptosis induced by the treatments. Cells were treated for 72 h to 96 h depending on their doubling time (Table 1), and Caspase 3/7 activation was measured every 24 h by microscopy using an InCell Analyzer 2000 (GE Healthcare) equipped with a 4× objective and FITC excitation/emission filters. At the end of the treatment cells were prepared for cell counting by microscopy. Cells were fixed and permeabilised for 45 minutes in 4% PFA (Electron Microscopy Sciences, Catalog number 15714), 0.12% TX-100 (Electron Microscopy Sciences, Catalog number 22140) in PBS (Boston Bioproducts, Catalog number BM-220). After washing cells three times with PBS their DNA was stained for 30 minutes with Hoechst 33342 (ThermoFisher, Catalog number H3570) at a final concentration of 4 μg/mL. Cells were washed three times with PBS and then plates were heat-sealed using a PlateLoc (Agilent Technologies) with aluminum seals (Agilent Technologies, Catalog number 06644-001) and stored at 4° C. until imaging. All cells per well/treatment were captured in a single image by fluorescence microscopy using an InCell Analyzer 2000 (GE Healthcare) equipped with a 4× objective and DAPI excitation/emission filters.
(§3) Images were analyzed after adapting previously described methods (Horn, Sandmann et al. 2011, Nat. Methods 8(4): 341-346) and using the Bioconductor package EBImage in R (Pau, Fuchs et al. 2010, Bioinformatics 26(7):979-981). Objects in both channels, DAPI (for Hoechst/DNA) and FITC (for Caspase 3/7), were segmented separately by adaptive thresholding and counted. A threshold for Caspase 3/7 positive objects was defined manually per cell line after comparing negative controls (DMSO) and positive controls (Staurosporine). By analyzing 17 additional object/nuclei features in the DNA channel (shape and intensity features) debris/fragmented nuclei were identified. To this end per cell line the distributions of the additional features between positive controls (Staurosporine) and negative controls (DMSO) were compared manually. […]

A further experiment relates to HCT-116. As to conditions: Homo sapiens; HCT-116, single agent, 72 h, cell count relative to DMSO. On the procedure: as §1, §2, §3
The subject of the next experiment is LS-180. As to conditions: Homo sapiens, LS180; LS-160 (so in the source), single agent, 72 h, cell count relative to DMSO. Here is the method: as §1, §2, §3
The test system of a further experiment is LoVo. As to conditions: Homo sapiens, single agent, 96 h, cell count relative to DMSO. Here is the method:
as §1, §2, §3

A further experiment deals with RKO. Particulars: Homo sapiens, single agent, 72 h, cell count relative to DMSO. Here is the method:
as §1, §2, §3

By IC50 is commonly meant the point on the concentration scale where inhibition reaches its midpoint. As for `Cc1nc(NC(=O)N2CCC[C@H]2C(N)=O)sc1-c1ccnc(C(C)(C)C(F)(F)F)c1` [COMPOUND A, (S)-Pyrrolidine-1,2-dicarboxylic acid 2-amide 1-({4-methyl-5-[2-(2,2,2-trifluoro-1,1-dimethyl-ethyl)-pyridin-4-yl]-thiazol-2-yl}-amide)], the IC50 with GP2d is 500 nM; in the experiment with HCT-116, 9800 nM; with LS-180, more than 10000 nM; in the experiment with LoVo, more than 10000 nM; in the experiment on RKO it was 3900 nM.

Take `COc1cc2c(cc1OC(C)C)[C@H](c1ccc(Cl)cc1)N(c1ccc(N(C)C[C@H]3CC[C@H](N4CCN(C)C(=O)C4)CC3)cc1)C(=O)C2` [COMPOUND B, (S)-1-(4-Chloro-phenyl)-7-isopropoxy-6-methoxy-2-(4-{methyl-[4-(4-methyl-3-oxo-piperazin-1-yl)-trans-cyclohexylmethyl]-amino}-phenyl)-1,4-dihydro-2H-isoquinolin-3-one]: the IC50 in the experiment with GP2d turned out to be 800 nM; in the experiment with HCT-116 it was 100 nM; with LS-180 it was 700 nM; in the experiment on LoVo, 600 nM; with RKO, 1200 nM.
